Reference: US20260209214A1, “LSD1 MODULATORS” (RECURSION PHARMACEUTICALS, INC., priority 2022, published 2026)
Structures can show the parent of a compound that is named as a salt.

molecular target: Recombinant human LSD1 (Homo sapiens, UniProt O60341); test: LSD1 inhibition assay (HTRF LSD1 Histone H3K4 mono-demethylation assay, me1->me0); type: biochemical; settings: 20 nM recombinant human LSD1, 95 nM H3K4(me1) biotinylated peptide, 15 min preincubation, 60 min at 25° C., read-out: LSD1 inhibition IC50 (nM range)
Procedure, shortened: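 Recombinant human LSD1 (20 nM) pre-incubated 15 min with 10 semi-log compound doses, then 95 nM biotinylated H3K4me1 peptide for 60 min at 25 °C in pH 8.5 Tris/NaCl buffer with 10 μM FAD, 1 mM DTT. HTRF me0-antibody read after 90 min; IC50 from 4-parameter fit.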

Row | SMILES | IC50
1 | N#Cc1ccc(-c2cccc(CC3CNCCO3)c2C#N)cc1F (stereo not drawn) [Example 84, 3′-fluoro-3-[(morpholin-2-yl)methyl]-[1,1′-biphenyl]-2,4′-dicarbonitrile] | > 1000 nM
2 | COc1ccc(-c2c(C)cc(CC3CNCCO3)cc2-c2ccc(C#N)c(F)c2)cn1 (stereo not drawn) [Example 85, 3-fluoro-2′-(6-methoxypyridin-3-yl)-3′-methyl-5′-[(morpholin-2-yl)methyl]-[1,1′-biphenyl]-4-carbonitrile] | 100 to 1000 nM
3 | COc1ccc(C2CN(c3ccc(CC4CNCCO4)cc3-c3ccc(C#N)c(F)c3)C2)cn1 (stereo not drawn) [Example 86, 3-fluoro-2′-[3-(6-methoxypyridin-3-yl)azetidin-1-yl]-5′-[(morpholin-2-yl)methyl]-[1,1′-biphenyl]-4-carbonitrile] | 100 to 1000 nM
4 | N#Cc1ccc(-c2cc(CC3CNCCO3)ccc2N2CCN(c3nccs3)CC2)cc1F (stereo not drawn) [Example 88, 3-fluoro-5′-[(morpholin-2-yl)methyl]-2′-[4-(1,3-thiazol-2-yl)piperazin-1-yl]-[1,1′-biphenyl]-4-carbonitrile] | 100 to 1000 nM
5 | Cc1cc(NCC2CNCCO2)c(Cl)c(-c2ccc(C#N)c(F)c2)c1 (stereo not drawn) [Example 89, 2′-chloro-3-fluoro-5′-methyl-3′-{[(morpholin-2-yl)methyl]amino}-[1,1′-biphenyl]-4-carbonitrile] | > 1000 nM
6 | N#Cc1ccc(-c2cccc(CC3CNCCO3)c2-n2cccn2)cc1F (stereo not drawn) [Example 90, 2-fluoro-4-[3-(morpholin-2-ylmethyl)-2-pyrazol-1-yl-phenyl]benzonitrile] | > 1000 nM
7 | Cn1nc2ccc(-c3ccc(CC4CNCCO4)cc3-c3ccc(C#N)c(F)c3)cc2c1Cl (stereo not drawn) [Example 91, 2′-(3-chloro-2-methyl-2H-indazol-5-yl)-3-fluoro-5′-[(morpholin-2-yl)methyl]-[1,1′-biphenyl]-4-carbonitrile] | 25 to 100 nM
8 | N#Cc1ccc(-c2cccc(CC3CNCCO3)c2-c2cocn2)cc1F (stereo not drawn) [Example 92, 3-fluoro-3′-[(morpholin-2-yl)methyl]-2′-(1,3-oxazol-4-yl)-[1,1′-biphenyl]-4-carbonitrile] | 100 to 1000 nM
9 | N#Cc1ccc(-c2cc(CC3CNCCO3)ccc2-c2ccc(N3CCCC3)nc2)cc1F (stereo not drawn) [Example 93, 3-fluoro-5′-[(morpholin-2-yl)methyl]-2′-[6-(pyrrolidin-1-yl)pyridin-3-yl]-[1,1′-biphenyl]-4-carbonitrile] | 25 to 100 nM
10 | COCCOc1ccc(-c2ccc(CC3CNCCO3)cc2-c2ccc(C#N)c(F)c2)cc1 (stereo not drawn) [Example 94, 3-fluoro-2′-[4-(2-methoxyethoxy)phenyl]-5′-[(morpholin-2-yl)methyl]-[1,1′-biphenyl]-4-carbonitrile] | 25 to 100 nM
11 | CN(C)C1CCN(c2cccc(-c3ccc(C#N)c(F)c3)c2-c2cnco2)CC1 [Example 95, 3'-[4-(dimethylamino)piperidin-1-yl]-3-fluoro-2'-(1,3-oxazol-5-yl)-[1,1'-biphenyl]-4-carbonitrile] | 25 to 100 nM
12 | N#Cc1ccc(-c2cc(CC3CNCCO3)ccc2-c2ccc(OCC3CC3)nc2)cc1F (stereo not drawn) [Example 96, 2′-[6-(cyclopropylmethoxy)pyridin-3-yl]-3-fluoro-5′-[(morpholin-2-yl)methyl]-[1,1′-biphenyl]-4-carbonitrile] | 100 to 1000 nM
13 | N#Cc1ccc(-c2cc(CC3CNCCO3)ccc2N2CCn3nc(C4CC4)cc3C2)cc1F (stereo not drawn) [Example 97, 2′-{2-cyclopropyl-4H,5H,6H,7H-pyrazolo[1,5-a]pyrazin-5-yl}-3-fluoro-5′-[(morpholin-2-yl)methyl]-[1,1′-biphenyl]-4-carbonitrile] | > 1000 nM
14 | COc1ccc(-c2ccc(CC3CNCCO3)cc2-c2ccc(C#N)c(F)c2)cc1F (stereo not drawn) [Example 98, 3-fluoro-2′-(3-fluoro-4-methoxyphenyl)-5′-[(morpholin-2-yl)methyl]-[1,1′-biphenyl]-4-carbonitrile] | 100 to 1000 nM
15 | CC1(F)CCN(c2ccc(CC3CNCCO3)cc2-c2ccc(C#N)c(F)c2)CC1 (stereo not drawn) [Example 99, 3-fluoro-2′-(4-fluoro-4-methylpiperidin-1-yl)-5′-[(morpholin-2-yl)methyl]-[1,1′-biphenyl]-4-carbonitrile] | 100 to 1000 nM
16 | N#Cc1ccc(-c2cc(CC3CNCCO3)ccc2N2CCC(C3CCOC3)CC2)cc1F (stereo not drawn) [Example 100, 3-fluoro-5′-[(morpholin-2-yl)methyl]-2′-[4-(oxolan-3-yl)piperidin-1-yl]-[1,1′-biphenyl]-4-carbonitrile] | 25 to 100 nM
17 | N#Cc1ccc(-c2cc(CC3CNCCO3)ccc2N2CC(c3ccc(C4CC4)nc3)C2)cc1F (stereo not drawn) [Example 101, 2′-[3-(6-cyclopropylpyridin-3-yl)azetidin-1-yl]-3-fluoro-5′-[(morpholin-2-yl)methyl]-[1,1′-biphenyl]-4-carbonitrile] | 100 to 1000 nM
18 | N#Cc1ccc(-c2cc(CC3CNCCCO3)ccc2N2CCC2)cc1F (stereo not drawn) [Example 102, 2′-(azetidin-1-yl)-3-fluoro-5′-[(1,4-oxazepan-2-yl)methyl]-[1,1′-biphenyl]-4-carbonitrile] | 25 to 100 nM

Row | SMILES | IC50
19 | CC1(C)CNCC(Cc2cccc(-c3ccc(C#N)cc3)c2-c2cncs2)O1 (stereo not drawn) [Example 103, 3′-[(6,6-dimethylmorpholin-2-yl)methyl]-2′-(1,3-thiazol-5-yl)-[1,1′-biphenyl]-4-carbonitrile] | 10 to 25 nM
20 | CC(C)(O)Cc1ccc(-c2ccc(CC3CNCCO3)cc2-c2ccc(C#N)c(F)c2)c(F)c1 (stereo not drawn) [Example 104, 3-fluoro-2′-[2-fluoro-4-(2-hydroxy-2-methylpropyl)phenyl]-5′-[(morpholin-2-yl)methyl]-[1,1′-biphenyl]-4-carbonitrile] | 25 to 100 nM
21 | N#Cc1ccc(-c2cc(CC3CNCCO3)ccc2N2CCN(CC(F)F)CC2)cc1F (stereo not drawn) [Example 105, 2′-[4-(2,2-difluoroethyl)piperazin-1-yl]-3-fluoro-5′-[(morpholin-2-yl)methyl]-[1,1′-biphenyl]-4-carbonitrile] | 100 to 1000 nM
22 | N#Cc1ccc(-c2cc(CC3CNCCO3)ccc2COc2cccnc2)cc1F (stereo not drawn) [Example 106, 3-fluoro-5′-[(morpholin-2-yl)methyl]-2′-[(pyridin-3-yloxy)methyl]-[1,1′-biphenyl]-4-carbonitrile] | 100 to 1000 nM
23 | N#Cc1ccc(-c2cc(CC3CNCCO3)ccc2N2CC(c3cccnc3)C2)cc1F (stereo not drawn) [Example 107, 3-fluoro-5′-[(morpholin-2-yl)methyl]-2′-[3-(pyridin-3-yl)azetidin-1-yl]-[1,1′-biphenyl]-4-carbonitrile] | 100 to 1000 nM
24 | N#Cc1ccc(-c2cccc(N3CCC4NCCC4C3)c2-c2ccns2)cc1F (stereo not drawn) [Example 108, 3-fluoro-3'-{octahydro-1H-pyrrolo[3,2-c]pyridin-5-yl}-2'-(1,2-thiazol-5-yl)-[1,1'-biphenyl]-4-carbonitrile] | < 10 nM
25 | N#Cc1ccc(-c2cccc(CC3CCNC3)c2-c2ccns2)cc1F (stereo not drawn) [Example 109, 2-fluoro-4-[2-isothiazol-5-yl-3-(pyrrolidin-3-ylmethyl)phenyl]benzonitrile; hydrochloride] | < 10 nM
26 | N#Cc1ccc(-c2cccc(N3CCC(N)CC3)c2-c2ccns2)cc1F [Example 110, 3'-(4-aminopiperidin-1-yl)-3-fluoro-2'-(1,2-thiazol-5-yl)-[1,1'-biphenyl]-4-carbonitrile] | 10 to 25 nM
27 | N#Cc1ccc(-c2cccc(CC3CCOCC3)c2-c2ccns2)cc1F [Example 111, 3-fluoro-3′-[(oxan-4-yl)methyl]-2′-(1,2-thiazol-5-yl)-[1,1′-biphenyl]-4-carbonitrile] | 25 to 100 nM
28 | N#Cc1ccc(-c2cccc(OC3CC4CNC3C4)c2-c2ccns2)cc1F (stereo not drawn) [Example 112, 3′-{2-azabicyclo[2.2.1]heptan-6-yloxy}-3-fluoro-2′-(1,2-thiazol-5-yl)-[1,1′-biphenyl]-4-carbonitrile] | 10 to 25 nM
29 | Cc1sncc1-c1c(CC2CNCCO2)cccc1-c1ccc(C#N)c(F)c1 [Example 113, (2R,3R)-2,3-dihydroxybutanedioic acid; 2-fluoro-4-[2-(5-methylisothiazol-4-yl)-3-(morpholin-2-ylmethyl)phenyl]benzonitrile] | 100 to 1000 nM
30 | N#Cc1ccc(-c2cccc(N3CCC(N)CC3)c2-c2cncs2)cc1F [Example 115, 3'-(4-aminopiperidin-1-yl)-3-fluoro-2'-(1,3-thiazol-5-yl)-[1,1'-biphenyl]-4-carbonitrile] | 10 to 25 nM
31 | CNC1CCN(c2cccc(-c3ccc(C#N)c(F)c3)c2-c2cncs2)CC1 [Example 116, 3-fluoro-3'-[4-(methylamino)piperidin-1-yl]-2'-(1,3-thiazol-5-yl)-[1,1'-biphenyl]-4-carbonitrile] | 10 to 25 nM
32 | N#Cc1ccc(-c2cc(CC3CNCCO3)ccc2NCc2cnn3c2CCCC3)cc1F (stereo not drawn) [Example 117, 3-fluoro-5′-[(morpholin-2-yl)methyl]-2′-[{{4H,5H,6H,7H-pyrazolo[1,5-a]pyridin-3-yl}methyl)amino]-[1,1′-biphenyl]-4-carbonitrile] | > 1000 nM
33 | N#Cc1ccc(-c2cc(CC3CNCCO3)ccc2N2CCCC3(CCOC3)C2)cc1F (stereo not drawn) [Example 118, 3-fluoro-5′-[(morpholin-2-yl)methyl]-2′-{2-oxa-7-azaspiro[4.5]decan-7-yl}-[1,1′-biphenyl]-4-carbonitrile] | 100 to 1000 nM
34 | N#Cc1ccc(-c2cc(CC3CNCCO3)ccc2N2CCC3(CCOC3)C2)cc1F (stereo not drawn) [Example 119, 3-fluoro-5′-[(morpholin-2-yl)methyl]-2′-{2-oxa-7-azaspiro[4.4]nonan-7-yl}-[1,1′-biphenyl]-4-carbonitrile] | 100 to 1000 nM
35 | CN(C[C@H]1CCCOC1)c1ccc(CC2CNCCO2)cc1-c1ccc(C#N)c(F)c1 (stereo partly drawn) [Example 120, 3-fluoro-2′-[methyl({[(3R)-oxan-3-yl]methyl})amino]-5′-[(morpholin-2-yl)methyl]-[1,1′-biphenyl]-4-carbonitrile] | 100 to 1000 nM
36 | Cc1cc(Oc2ccc(CC3CNCCO3)cc2-c2ccc(C#N)c(F)c2)ccn1 (stereo not drawn) [Example 121, 3-fluoro-2′-[(2-methylpyridin-4-yl)oxy]-5′-[(morpholin-2-yl)methyl]-[1,1′-biphenyl]-4-carbonitrile] | 100 to 1000 nM
